# Results taken from ChEMBL document CHEMBL3885861, “Open TG-GATES”.
# Structures can show the parent of a compound that is named as a salt.
# Species: Rattus norvegicus
# Experiment: Open TG-GATES - Regimen: Single
# Type: toxicity, organism-based, Sprague-Dawley
# Parameters: regimen Single, gender Male, age 6 weeks
# Settings: in vivo, ip, 80 mg/kg, route intraperitoneal injection, dose level Low; for APTT / Bas / Eos / Fbg / Hb / Ht / Lym / MCH / MCHC / MCV / Mono / Neu / PT / Plat / RBC / Ret / WBC: tissue Blood; for KIDNEY_L / KIDNEY_R / KIDNEY_TOTAL: tissue Kidney; for LIVER: tissue Liver; for A/G / ALP / ALT / AST / BUN / CRE / Ca / Cl / DBIL / GLC / IP / K / LDH / Na / PL / RALB / TBIL / TC / TG / TP / gamma-GTP: tissue Plasma
structure (smiles),measurement,setting,value
CCOC(=O)/C=C\C(=O)OCC [DIETHYL MALEATE],TERMINAL_BW,3 h,197.8 g
same,APTT,3 h,16.6 s
same,Bas,3 h,0%
same,Eos,3 h,0.4%
same,Fbg,3 h,212.4 mg/dL
same,Hb,3 h,13.4 g/dL
same,Ht,3 h,40%
same,Lym,3 h,73.4%
same,MCH,3 h,22 pg
same,MCHC,3 h,33.5%
same,MCV,3 h,65.8 fL
same,Mono,3 h,6.6%
same,Neu,3 h,20%
same,PT,3 h,12.3 s
same,Plat,3 h,114.6 x10_4/uL
same,RBC,3 h,608.6 x10_4/ul
same,Ret,3 h,9.4%
same,WBC,3 h,97 x10_2/uL
same,KIDNEY_L,3 h,0.8 g
same,KIDNEY_R,3 h,0.9 g
same,KIDNEY_TOTAL,3 h,1.7 g
same,LIVER,3 h,9 g
same,A/G,3 h,1.9
same,ALP,3 h,802.4 IU/L
same,ALT,3 h,41.2 IU/L
same,AST,3 h,75.2 IU/L
same,BUN,3 h,14.8 mg/dL
same,CRE,3 h,0.5 mg/dL
same,Ca,3 h,11 mg/dL
same,Cl,3 h,106.6 meq/L
same,DBIL,3 h,0.032 mg/dL
same,GLC,3 h,194.2 mg/dL
same,IP,3 h,10.2 mg/dL
same,K,3 h,5.1 meq/L
same,LDH,3 h,80.8 IU/L
same,Na,3 h,140.4 meq/L
same,PL,3 h,150.4 mg/dL
same,RALB,3 h,3.6 g/dL
same,TBIL,3 h,0.4 mg/dL
same,TC,3 h,88 mg/dL
same,TG,3 h,33 mg/dL
same,TP,3 h,5.5 g/dL
same,gamma-GTP,3 h,1 IU/L
same,TERMINAL_BW,6 h,197.1 g
same,APTT,6 h,16.8 s
same,Bas,6 h,0%
same,Eos,6 h,0.6%
same,Fbg,6 h,207.2 mg/dL
same,Hb,6 h,13.1 g/dL
same,Ht,6 h,39.2%
same,Lym,6 h,76.2%
same,MCH,6 h,21.9 pg
same,MCHC,6 h,33.4%
same,MCV,6 h,65.4 fL
same,Mono,6 h,5.2%
same,Neu,6 h,17.8%
same,PT,6 h,12.2 s
same,Plat,6 h,116.6 x10_4/uL
same,RBC,6 h,599.8 x10_4/ul
same,Ret,6 h,9.5%
same,WBC,6 h,108.8 x10_2/uL
same,KIDNEY_L,6 h,0.9 g
same,KIDNEY_R,6 h,0.9 g
same,KIDNEY_TOTAL,6 h,1.7 g
same,LIVER,6 h,8.4 g
same,A/G,6 h,1.9
same,ALP,6 h,753.2 IU/L
same,ALT,6 h,36.4 IU/L
same,AST,6 h,76.2 IU/L
same,BUN,6 h,13 mg/dL
same,CRE,6 h,0.5 mg/dL
same,Ca,6 h,10.7 mg/dL
same,Cl,6 h,106.8 meq/L
same,DBIL,6 h,0.002 mg/dL
same,GLC,6 h,194 mg/dL
same,IP,6 h,10 mg/dL
same,K,6 h,4.8 meq/L
same,LDH,6 h,91 IU/L
same,Na,6 h,139.2 meq/L
same,PL,6 h,131.4 mg/dL
same,RALB,6 h,3.4 g/dL
same,TBIL,6 h,0.5 mg/dL
same,TC,6 h,73.4 mg/dL
same,TG,6 h,46 mg/dL
same,TP,6 h,5.3 g/dL
same,gamma-GTP,6 h,1 IU/L
same,TERMINAL_BW,9 h,197.4 g
same,APTT,9 h,16.7 s
same,Bas,9 h,0%
same,Eos,9 h,0.8%
same,Fbg,9 h,223.2 mg/dL
same,Hb,9 h,12.9 g/dL
same,Ht,9 h,38.5%
same,Lym,9 h,71.4%
same,MCH,9 h,21.7 pg
same,MCHC,9 h,33.6%
same,MCV,9 h,64.7 fL
same,Mono,9 h,3.8%
same,Neu,9 h,24%
same,PT,9 h,11.7 s
same,Plat,9 h,117.4 x10_4/uL
same,RBC,9 h,596.2 x10_4/ul
same,Ret,9 h,9.2%
same,WBC,9 h,102 x10_2/uL
same,KIDNEY_L,9 h,0.8 g
same,KIDNEY_R,9 h,0.9 g
same,KIDNEY_TOTAL,9 h,1.7 g
same,LIVER,9 h,8 g
same,A/G,9 h,2.2
same,ALP,9 h,735 IU/L
same,ALT,9 h,35.2 IU/L
same,AST,9 h,73.4 IU/L
same,BUN,9 h,12.6 mg/dL
same,CRE,9 h,0.4 mg/dL
same,Ca,9 h,10.5 mg/dL
same,Cl,9 h,107.2 meq/L
same,DBIL,9 h,0.026 mg/dL
same,GLC,9 h,204.6 mg/dL
same,IP,9 h,9.6 mg/dL
same,K,9 h,4.7 meq/L
same,LDH,9 h,89.4 IU/L
same,Na,9 h,139.6 meq/L
same,PL,9 h,137.8 mg/dL
same,RALB,9 h,3.6 g/dL
same,TBIL,9 h,0.3 mg/dL
same,TC,9 h,79.4 mg/dL
same,TG,9 h,41 mg/dL
same,TP,9 h,5.3 g/dL
same,gamma-GTP,9 h,1.4 IU/L
same,TERMINAL_BW,24 h,209.5 g
same,APTT,24 h,15.5 s
same,Bas,24 h,0%
same,Eos,24 h,0.8%
same,Fbg,24 h,225.8 mg/dL
same,Hb,24 h,12.9 g/dL
same,Ht,24 h,38.7%
same,Lym,24 h,79.4%
same,MCH,24 h,21.6 pg
same,MCHC,24 h,33.4%
same,MCV,24 h,64.7 fL
same,Mono,24 h,4.6%
same,Neu,24 h,15.2%
same,PT,24 h,11.8 s
same,Plat,24 h,123.2 x10_4/uL
same,RBC,24 h,598.4 x10_4/ul
same,Ret,24 h,9.8%
same,WBC,24 h,94.6 x10_2/uL
same,KIDNEY_L,24 h,0.9 g
same,KIDNEY_R,24 h,0.9 g
same,KIDNEY_TOTAL,24 h,1.8 g
same,LIVER,24 h,10 g
same,A/G,24 h,2.1
same,ALP,24 h,887.2 IU/L
same,ALT,24 h,36 IU/L
same,AST,24 h,63.6 IU/L
same,BUN,24 h,17.4 mg/dL
same,CRE,24 h,0.5 mg/dL
same,Ca,24 h,11.1 mg/dL
same,Cl,24 h,106 meq/L
same,DBIL,24 h,0.03 mg/dL
same,GLC,24 h,195.8 mg/dL
same,IP,24 h,8 mg/dL
same,K,24 h,5 meq/L
same,LDH,24 h,94.4 IU/L
same,Na,24 h,139.6 meq/L
same,PL,24 h,148.8 mg/dL
same,RALB,24 h,3.7 g/dL
same,TBIL,24 h,0.3 mg/dL
same,TC,24 h,82.6 mg/dL
same,TG,24 h,93 mg/dL
same,TP,24 h,5.5 g/dL
same,gamma-GTP,24 h,1.6 IU/L
